# Data: PubChem BioAssay (NCI)
#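 Following 48 hours of exposure in 96-well plates, responses at five concentrations were used to interpolate endpoints linearly. The concentration for 50% growth inhibition is given as GI50. At the TGI there is no net growth.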
# Tests used:
# Experiment in all cases: DTP human tumour cell line panel, 48 h
# SNB-75 CNS = test system: SNB-75 CNS
# RPMI-8226 leukemia = test system: RPMI-8226 leukemia
# LOX IMVI melanoma = test system: LOX IMVI melanoma
# HCC-2998 colon = test system: HCC-2998 colon
# COLO 205 colon = test system: COLO 205 colon
# MDA-MB-435 = test system: MDA-MB-435
# MOLT-4 leukemia = test system: MOLT-4 leukemia
# SW-620 colon = test system: SW-620 colon
# CAKI-1 renal = test system: CAKI-1 renal
# NCI-H226 lung = test system: NCI-H226 lung
# HS 578T breast = test system: HS 578T breast
# A549 NSCLC = test system: A549 NSCLC
# M14 melanoma = test system: M14 melanoma
# HOP-62 NSCLC = test system: HOP-62 NSCLC
# T-47D breast = test system: T-47D breast
# NCI-H522 lung = test system: NCI-H522 lung
# EKVX NSCLC = test system: EKVX NSCLC
# RXF 393 renal = test system: RXF 393 renal
# UACC-62 melanoma = test system: UACC-62 melanoma
# ACHN renal = test system: ACHN renal
# SF-539 CNS = test system: SF-539 CNS
# MCF7 breast = test system: MCF7 breast
# NCI/ADR-RES ovarian = test system: NCI/ADR-RES ovarian
# SN12C renal = test system: SN12C renal
# SF-268 CNS = test system: SF-268 CNS
# HCT-116 colon = test system: HCT-116 colon
# OVCAR-8 ovarian = test system: OVCAR-8 ovarian
# SK-MEL-28 melanoma = test system: SK-MEL-28 melanoma
# DU-145 prostate = test system: DU-145 prostate
# HCT-15 colon = test system: HCT-15 colon
# 786-0 renal = test system: 786-0 renal
# MDA-MB-231 breast = test system: MDA-MB-231 breast
# A498 renal = test system: A498 renal
# BT-549 breast = test system: BT-549 breast
# TK-10 renal = test system: TK-10 renal
# UO-31 renal = test system: UO-31 renal
# NCI-H460 lung = test system: NCI-H460 lung
# CCRF-CEM leukemia = test system: CCRF-CEM leukemia
# SR leukemia = test system: SR leukemia
# IGROV1 ovarian = test system: IGROV1 ovarian
# UACC-257 melanoma = test system: UACC-257 melanoma
# OVCAR-4 ovarian = test system: OVCAR-4 ovarian
# MALME-3M melanoma = test system: MALME-3M melanoma
# K-562 leukemia = test system: K-562 leukemia
# OVCAR-3 ovarian = test system: OVCAR-3 ovarian
# SK-MEL-2 melanoma = test system: SK-MEL-2 melanoma
# SF-295 CNS = test system: SF-295 CNS
# NCI-H23 lung = test system: NCI-H23 lung
# SNB-19 CNS = test system: SNB-19 CNS
# PC-3 prostate = test system: PC-3 prostate
# KM12 colon = test system: KM12 colon
# U251 CNS = test system: U251 CNS
# HL-60(TB) leukemia = test system: HL-60(TB) leukemia
# HOP-92 NSCLC = test system: HOP-92 NSCLC
# OVCAR-5 ovarian = test system: OVCAR-5 ovarian
# HT29 colon = test system: HT29 colon
# SK-OV-3 ovarian = test system: SK-OV-3 ovarian
# SK-MEL-5 melanoma = test system: SK-MEL-5 melanoma
smiles,measurement,setting,value
O=S1CCN(Cc2ccc(-c3ccc4ncnc(Nc5ccc(OCc6ccccc6)c(Cl)c5)c4c3)o2)CC1,GI50,SNB-75 CNS,> 16.6 µM
same,TGI,SNB-75 CNS,> 25 µM
same,GI50,RPMI-8226 leukemia,12.4 µM
same,TGI,RPMI-8226 leukemia,> 25 µM
same,GI50,LOX IMVI melanoma,8.51 µM
same,TGI,LOX IMVI melanoma,> 16.9 µM
same,GI50,HCC-2998 colon,7.19 µM
same,TGI,HCC-2998 colon,23.4 µM
same,GI50,COLO 205 colon,11.7 µM
same,TGI,COLO 205 colon,> 25 µM
same,GI50,MDA-MB-435,8.95 µM
same,TGI,MDA-MB-435,> 25 µM
same,GI50,MOLT-4 leukemia,9.06 µM
same,TGI,MOLT-4 leukemia,> 25 µM
same,GI50,SW-620 colon,8.63 µM
same,TGI,SW-620 colon,> 25 µM
same,GI50,CAKI-1 renal,0.635 µM
same,TGI,CAKI-1 renal,> 25 µM
same,GI50,NCI-H226 lung,> 16.5 µM
same,TGI,NCI-H226 lung,> 25 µM
same,GI50,HS 578T breast,> 21.6 µM
same,TGI,HS 578T breast,> 25 µM
same,GI50,A549 NSCLC,8.02 µM
same,TGI,A549 NSCLC,> 25 µM
same,GI50,M14 melanoma,10 µM
same,TGI,M14 melanoma,> 25 µM
same,GI50,HOP-62 NSCLC,> 25 µM
same,TGI,HOP-62 NSCLC,> 25 µM
same,GI50,T-47D breast,5.72 µM
same,TGI,T-47D breast,> 25 µM
same,GI50,NCI-H522 lung,3.68 µM
same,TGI,NCI-H522 lung,> 25 µM
same,GI50,EKVX NSCLC,0.112 µM
same,TGI,EKVX NSCLC,> 19.9 µM
same,GI50,RXF 393 renal,> 15.3 µM
same,TGI,RXF 393 renal,> 25 µM
same,GI50,UACC-62 melanoma,10.7 µM
same,TGI,UACC-62 melanoma,> 23.4 µM
same,GI50,ACHN renal,0.656 µM
same,TGI,ACHN renal,> 25 µM
same,GI50,SF-539 CNS,> 15.3 µM
same,TGI,SF-539 CNS,> 25 µM
same,GI50,MCF7 breast,> 15.2 µM
same,TGI,MCF7 breast,> 25 µM
same,GI50,NCI/ADR-RES ovarian,8.08 µM
same,TGI,NCI/ADR-RES ovarian,> 25 µM
same,GI50,SN12C renal,14.8 µM
same,TGI,SN12C renal,> 25 µM
same,GI50,SF-268 CNS,> 22.3 µM
same,TGI,SF-268 CNS,> 25 µM
same,GI50,HCT-116 colon,11.3 µM
same,TGI,HCT-116 colon,> 25 µM
same,GI50,OVCAR-8 ovarian,11.7 µM
same,TGI,OVCAR-8 ovarian,> 25 µM
same,GI50,SK-MEL-28 melanoma,14 µM
same,TGI,SK-MEL-28 melanoma,> 25 µM
same,GI50,DU-145 prostate,7.52 µM
same,TGI,DU-145 prostate,> 25 µM
same,GI50,HCT-15 colon,7.78 µM
same,TGI,HCT-15 colon,> 25 µM
same,GI50,786-0 renal,10.7 µM
same,TGI,786-0 renal,> 25 µM
same,GI50,MDA-MB-231 breast,14.9 µM
same,TGI,MDA-MB-231 breast,> 25 µM
same,GI50,A498 renal,5.82 µM
same,TGI,A498 renal,24.3 µM
same,GI50,BT-549 breast,9.62 µM
same,TGI,BT-549 breast,> 20.5 µM
same,GI50,TK-10 renal,0.116 µM
same,TGI,TK-10 renal,> 25 µM
same,GI50,UO-31 renal,6.32 µM
same,TGI,UO-31 renal,> 25 µM
same,GI50,NCI-H460 lung,10.2 µM
same,TGI,NCI-H460 lung,> 25 µM
same,GI50,CCRF-CEM leukemia,9.07 µM
same,TGI,CCRF-CEM leukemia,> 25 µM
same,GI50,SR leukemia,7.57 µM
same,TGI,SR leukemia,> 25 µM
same,GI50,IGROV1 ovarian,0.561 µM
same,TGI,IGROV1 ovarian,> 25 µM
same,GI50,UACC-257 melanoma,8.55 µM
same,TGI,UACC-257 melanoma,> 25 µM
same,GI50,OVCAR-4 ovarian,13.5 µM
same,TGI,OVCAR-4 ovarian,> 25 µM
same,GI50,MALME-3M melanoma,10.1 µM
same,TGI,MALME-3M melanoma,> 25 µM
same,GI50,K-562 leukemia,10.1 µM
same,TGI,K-562 leukemia,> 25 µM
same,GI50,OVCAR-3 ovarian,8.08 µM
same,TGI,OVCAR-3 ovarian,> 25 µM
same,GI50,SK-MEL-2 melanoma,7.46 µM
same,TGI,SK-MEL-2 melanoma,16.7 µM
same,GI50,SF-295 CNS,9.76 µM
same,TGI,SF-295 CNS,> 25 µM
same,GI50,NCI-H23 lung,13.3 µM
same,TGI,NCI-H23 lung,> 25 µM
same,GI50,SNB-19 CNS,> 25 µM
same,TGI,SNB-19 CNS,> 25 µM
same,GI50,PC-3 prostate,11.8 µM
same,TGI,PC-3 prostate,> 25 µM
same,GI50,KM12 colon,9.22 µM
same,TGI,KM12 colon,> 25 µM
same,GI50,U251 CNS,14.9 µM
same,TGI,U251 CNS,> 25 µM
same,GI50,HL-60(TB) leukemia,10.6 µM
same,TGI,HL-60(TB) leukemia,> 20.7 µM
same,GI50,HOP-92 NSCLC,4.91 µM
same,TGI,HOP-92 NSCLC,> 21.2 µM
same,GI50,OVCAR-5 ovarian,12.1 µM
same,TGI,OVCAR-5 ovarian,> 25 µM
same,GI50,HT29 colon,6.9 µM
same,TGI,HT29 colon,> 18.8 µM
same,GI50,SK-OV-3 ovarian,0.0917 µM
same,TGI,SK-OV-3 ovarian,> 25 µM
same,GI50,SK-MEL-5 melanoma,7.9 µM
same,TGI,SK-MEL-5 melanoma,> 15.7 µM
